Source: US11667638B2, “4-substitued cytisine analogues” (The University of Bristol, priority 2016, dated 2023)

Molecular target: α4β2 nAChR (Homo sapiens (Human), UniProt P17787+P43681)
Format: binding
Conditions: ratio of Ki values
Procedure: HEK 293 cells were grown in Dulbecco's modified Eagle medium supplemented with 10% fetal bovine serum, 1% L-Glutamine, 100 units/ml penicillin G, and 100 μg/streptomycin in a humidified atmosphere containing 10% CO2. The cDNAs encoding α3 and β4 or α4 and β2 (were transfected into the HEK 293 cells at 30% confluency). The cell transfections were carried out in 100 mm Petri dishes using 30 μL of JetPEI™ (Polypus, France) (1 mg/ml, pH 7.2) and 3 μg of each cDNA. After 24 h transfection, the cells were collected, washed with PBS by centrifugation, and used for binding analysis.
[^3H]-epibatidine saturation binding experiments to HEK transfected α3β4 or α4β2 receptors were performed by means of overnight incubation at 4° C. at concentrations ranging from 0.005 to 1 nM in a buffer containing 50 mM Tris-HCl, pH 7, 150 mM NaCl, 5 mM KCl, 1 mM MgCl2, 2.5 mM CaCl2 and 2 mg/ml BSA, in the presence (aspecific binding) or absence (total binding) of 100 nM cold epibatidine. Specific ligand binding was defined as total binding minus the binding in the presence of 100 nM cold epibatidine.
After incubation, the membranes of HEK cells transfected with α4β2* or α3β4 subtypes were washed by filtration on GFC filters with ice-cold PBS. The GFC filters were pre-soaked in polyethylenimine and filtered through an harvester apparatus. [^3H]-epibatidine binding was determined by means of liquid scintillation counting in a beta counter.
The ligand binding data were analyzed by means of nonlinear regression using Prism version 5 (GraphPad Software, Inc., La Jolla, Calif.). The Ki values were calculated from the experimental IC50 values using the Cheng-Prusoff equation for a single population of competitive sites: Ki=IC50/[1+(L/Kd)], where L is the concentration of radioligand used in each experiment and the Kd values were determined by saturation binding experiment. All of the assays were performed in duplicate and repeated at least two-three times.

Sequence of α4β2 nAChR (P43681 29-627 limits assumed): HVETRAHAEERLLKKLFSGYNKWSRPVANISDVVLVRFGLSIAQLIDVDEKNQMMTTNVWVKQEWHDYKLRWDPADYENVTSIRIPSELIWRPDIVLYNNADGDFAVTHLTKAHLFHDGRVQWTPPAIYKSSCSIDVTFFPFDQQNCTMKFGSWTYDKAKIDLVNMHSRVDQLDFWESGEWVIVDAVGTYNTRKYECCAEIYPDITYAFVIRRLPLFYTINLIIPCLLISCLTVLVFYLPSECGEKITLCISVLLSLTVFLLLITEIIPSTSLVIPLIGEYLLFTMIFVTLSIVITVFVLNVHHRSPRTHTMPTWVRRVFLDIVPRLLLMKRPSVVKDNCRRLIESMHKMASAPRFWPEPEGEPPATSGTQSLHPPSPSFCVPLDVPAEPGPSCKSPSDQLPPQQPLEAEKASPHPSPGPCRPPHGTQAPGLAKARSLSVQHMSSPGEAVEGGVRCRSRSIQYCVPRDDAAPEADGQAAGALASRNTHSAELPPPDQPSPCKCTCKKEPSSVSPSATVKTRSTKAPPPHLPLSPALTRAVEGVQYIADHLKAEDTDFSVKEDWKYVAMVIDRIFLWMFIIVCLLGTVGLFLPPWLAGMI
Sequence of α4β2 nAChR (P17787 26-502 limits assumed): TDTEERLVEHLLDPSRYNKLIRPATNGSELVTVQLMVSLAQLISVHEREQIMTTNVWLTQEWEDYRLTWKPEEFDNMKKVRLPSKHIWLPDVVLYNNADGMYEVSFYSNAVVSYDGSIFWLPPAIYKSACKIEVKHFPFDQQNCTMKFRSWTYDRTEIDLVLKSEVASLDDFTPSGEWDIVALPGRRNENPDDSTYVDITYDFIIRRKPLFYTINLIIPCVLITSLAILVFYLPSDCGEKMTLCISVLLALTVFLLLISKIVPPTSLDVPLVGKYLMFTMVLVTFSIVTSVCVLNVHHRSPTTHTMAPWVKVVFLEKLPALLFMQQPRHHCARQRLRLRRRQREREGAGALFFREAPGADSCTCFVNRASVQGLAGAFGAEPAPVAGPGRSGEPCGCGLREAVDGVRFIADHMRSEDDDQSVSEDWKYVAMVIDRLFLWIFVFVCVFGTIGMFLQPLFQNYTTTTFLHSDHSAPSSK

Question: `Cl.O=c1cc(C(F)(F)F)cc2n1CC1CNC[C@@H]2C1` (single isomer, unassigned; (-)) [Compound 77, (−)4-Trifluoromethylcytisine] was tested. Which “Ratio α3β4/α4β2” value did it give?
Answer: 12.9

Question: For `Cl.O=c1cc(/C=C/c2ccccc2)cc2n1CC1CNC[C@@H]2C1` (single isomer, unassigned; (+)) [Compound 114, (+)4-(E-(2-phenylethenyl))cytisine], which “Ratio α3β4/α4β2” value is on record?
Answer: 145.5

Question: For `O=C(O)c1cc2n(c(=O)c1)CC1CNC[C@@H]2C1` (single isomer, unassigned; (-)) [Compound 120, (−)4-Carboxylic acidcytisine], which “Ratio α3β4/α4β2” value is on record?
Answer: 57.7

Question: For “(+)4-(E-2-propenoate methyl ester)cytisine [Compound 112]”, which “Ratio α3β4/α4β2” value is on record?
Answer: 152.8

Question: How did the “Ratio α3β4/α4β2” value turn out when `CN(C)Cc1cc2n(c(=O)c1)CC1CNC[C@@H]2C1` [Compound 151, 4-(dimethylamino)methyl-(−)-cytisine] was run?
Answer: 105.7

Question: With `CN(C)c1cc2n(c(=O)c1)CC1CNC[C@@H]2C1` (single isomer, unassigned; (+)) [Compound 86, (+)4-(N,N′-dimethylamino)cytisine] as the compound, how does the “Ratio α3β4/α4β2” value read?
Answer: 5.8

Question: With `O=C(O)[C@@H]1CCCN1c1cc2n(c(=O)c1)CC1CNC[C@@H]2C1` (single isomer, unassigned; (-)) [Compound 138, (−)4-(N-(L-proline)cytisine] as the compound, how does the “Ratio α3β4/α4β2” value read?
Answer: 2.7

Question: How did the “Ratio α3β4/α4β2” value turn out when `O=c1cc(-c2nnn[nH]2)cc2n1CC1CNC[C@@H]2C1` (single isomer, unassigned; (-)) [Compound 149, (−)4-tetrazoylcytisine] was run?
Answer: 149.2

Question: For `O=C(Nc1cc2n(c(=O)c1)CC1CNC[C@@H]2C1)c1ccccc1` (single isomer, unassigned; (+)) [Compound 96, (+)4-(N-Benzoylamino)cytisine], which “Ratio α3β4/α4β2” value is on record?
Answer: 89.6

Question: `Cl.O=c1cc(CCc2ccccc2)cc2n1CC1CNC[C@@H]2C1` [?] was tested. Which “Ratio α3β4/α4β2” value did it give?
Answer: 21.7

Question: For `NCC(=O)Nc1cc2n(c(=O)c1)CC1CNC[C@@H]2C1` [Compound 98], which “Ratio α3β4/α4β2” value is on record?
Answer: 1670.0

Question: `Cl.O=c1cc(CC(F)(F)F)cc2n1CC1CNC[C@@H]2C1` (single isomer, unassigned; (-)) [Compound 79, (−)4-(2,2,2-Trifluoroethyl)cytisine] was tested. Which “Ratio α3β4/α4β2” value did it give?
Answer: 27.4

Question: `Cl.O=c1ccccn1-c1cc2n(c(=O)c1)CC1CNC[C@@H]2C1` (single isomer, unassigned; (-)) [Compound 108, (−)4-(N-2-pyridone)cytisine] was tested. Which “Ratio α3β4/α4β2” value did it give?
Answer: 90.3

Question: How did the “Ratio α3β4/α4β2” value turn out when `C=Cc1cc2n(c(=O)c1)CC1CNC[C@@H]2C1` (single isomer, unassigned; (+)) [Compound 116, (+)4-Vinylcytisine] was run?
Answer: 100.1

Question: `O=c1cc(N2CCOCC2)cc2n1CC1CNC[C@@H]2C1` (single isomer, unassigned; (+)) [Compound 92, (+)4-N-morpholinecytisine] was tested. Which “Ratio α3β4/α4β2” value did it give?
Answer: 70.6

Question: `O=c1cc(N2CCNCC2)cc2n1CC1CNC[C@@H]2C1` (single isomer, unassigned; (+)) [Compound 90, (+)4-(N-piperazinyl)cytisine] was tested. Which “Ratio α3β4/α4β2” value did it give?
Answer: 14.1

Question: For `Cl.O=c1cc(C#Cc2ccccc2)cc2n1CC1CNC[C@@H]2C1` (single isomer, unassigned; (+)) [Compound 129, (+)4-(phenylacetylene)cytisine], which “Ratio α3β4/α4β2” value is on record?
Answer: 32.2

Question: With “(−)4-(3-Pyridinyl)cytisine [Compound 104]” as the compound, how does the “Ratio α3β4/α4β2” value read?
Answer: 168.7

Question: How did the “Ratio α3β4/α4β2” value turn out when `Cl.O=c1c(Br)c(I)cc2n1CC1CNC[C@@H]2C1` (single isomer, unassigned; (+)) [Compound 160, (+)3-Bromo-4-iodocytisine] was run?
Answer: 50.0

Question: `O=c1cc(NCc2ccccc2)cc2n1CC1CNC[C@@H]2C1` [Compound 78] was tested. Which “Ratio α3β4/α4β2” value did it give?
Answer: 125.0

Question: How did the “Ratio α3β4/α4β2” value turn out when `Cl.NC(=O)c1cc2n(c(=O)c1)CC1CNC[C@@H]2C1` (single isomer, unassigned; (-)) [Compound 142, (−)4-(carboxyamido)cytisine] was run?
Answer: 36.2

Question: With `NCc1cc2n(c(=O)c1)CC1CNC[C@@H]2C1` (single isomer, unassigned; (-)) [Compound 144, (−)4-(aminomethyl)cytisine] as the compound, how does the “Ratio α3β4/α4β2” value read?
Answer: 78.0
